Read-outs that look alike come from different tables or passages of the source.
Molecular target: human PDHK2 (hPDHK2) (Homo sapiens (Human), UniProt Q15119)
Assay: Inhibitory action of PDHK activity in vitro (kinase reaction, residual PDH activity measured)
Format: biochemical
[1] = PDHK inhibitory activity, class symbol of IC50
[2] = read-out: PDHK inhibitory activity IC50
[3] = read-out: PDHK inhibitory activity (class symbol)
[4] = class symbol of IC50, read-out: PDHK inhibitory activity

SMILES | IC50 [1] | IC50 [2] | other results
CN(CCO)C(=O)c1cc(-c2cncnc2)c2c(c1)C(O)(C(F)(F)F)c1ccccc1-2 (stereo not shown) [compound 372] | 100 to 1000 nM | 564 nM | 
OCCCCCOc1ccc2c(c1)C(O)(C(F)(F)F)c1ccccc1-2 (stereo not shown) [compound 296] | 100 to 1000 nM | 180 nM | 
Cc1cc(C(=O)N2CC(O)C2)cc2c1-c1ccccc1C2(O)C(F)(F)F (stereo not shown) [compound 350] | 100 to 1000 nM | 152 nM | 
CN(CCO)C(=O)c1cc(-c2cnn(C)c2)c2c(c1)C(O)(C(F)(F)F)c1ccccc1-2 (stereo not shown) [compound 346] | 100 to 1000 nM | 200 nM | 
Cn1cc(-c2cc(CC(N)=O)c3c(c2)C(O)(C(F)(F)F)c2ccccc2-3)cn1 (stereo not shown) [compound 637] |  | > 1000 nM | IC50 [3]: > 1000 nM
CCn1cc(-c2cccc3c2-c2ccccc2C3(O)C(F)(F)F)cn1 (stereo not shown) [compound 347] | < 100 nM | 88 nM | 
O=C1CCCN1CCOc1ccc2c(c1)C(O)(C(F)(F)F)c1ccccc1-2 (stereo not shown) [compound 359] | 100 to 1000 nM | 187 nM | 
CC(C)(C)C(=O)N1CCN(c2cc(-c3cccnc3)c3c(c2)C(O)(C(F)(F)F)c2ccccc2-3)CC1 (stereo not shown) [compound 285] | < 100 nM | 20 nM | 
COC(=O)C1CCN(C(=O)c2ccc3c(c2)C(O)(C(F)(F)F)c2ccccc2-3)C1 (stereo not shown) [compound 206] | > 1000 nM | 2240 nM | 
Cc1cc(-c2cnn(CCC(=O)O)c2)c2c(c1)C(O)(C(F)(F)F)c1ccccc1-2 (single isomer, unassigned; (+)) [compound 538, (+)-3-[4-(9-hydroxy-2-methyl-9-trifluoromethyl-9H-fluoren-4-yl)-pyrazol-1-yl]-propionic acid] | < 100 nM | 26 nM | 
CN1C(=O)CC[C@@H]1COc1ccc2c(c1)C(O)(C(F)(F)F)c1ccccc1-2 (stereo partly shown) [compound 447] | 100 to 1000 nM | 202 nM | 
Cc1nn(C)c(C)c1-c1cccc2c1-c1ccccc1C2(O)C(F)(F)F (stereo not shown) [compound 567] |  | > 1000 nM | IC50 [4]: > 1000 nM
CCNC(=O)Cn1cc(-c2cccc3c2-c2ccccc2C3(O)C(F)(F)F)cn1 (stereo not shown) [compound 511] | < 100 nM | 56 nM | 
CN(CCOc1cnc2c(c1)C(O)(C(F)(F)F)c1ccccc1-2)C(=O)CO (stereo not shown) [compound 399] | 100 to 1000 nM | 149 nM | 
OC1(C(F)(F)F)c2ccccc2-c2c(Cl)cc(-c3ccccc3)cc21 (stereo not shown) [compound 159] | 100 to 1000 nM | 318 nM | 
O=C(O)Cc1ccc2c(c1)C(O)(C(F)(F)F)c1ccccc1-2 (stereo not shown) [compound 402] | > 1000 nM | > 10000 nM | 
OC12CC3CC(C1)CC(Cn1cc(-c4cccc5c4-c4ccccc4C5(O)C(F)(F)F)cn1)(C3)C2 (stereo not shown) [compound 547] | < 100 nM | 62 nM | 
CCN(CC)C(=O)c1ccc2c(c1)C(O)(C(F)(F)F)c1ccccc1-2 (stereo not shown) [compound 54] | > 1000 nM | 21900 nM | 
COc1cc(-c2cnn(C)c2)c2c(c1)C(O)(C(F)(F)F)c1ccccc1-2 (stereo not shown) [compound 463] | < 100 nM | 47 nM | 
C=C(C)c1cccc2c1-c1ccccc1C2(O)C(F)(F)F (stereo not shown) [compound 138] | > 1000 nM | > 10000 nM | 
CN(CCOc1ccc2c(c1)C(O)(C(F)(F)F)c1ccccc1-2)C(=O)CO (stereo not shown) [compound 348] | 100 to 1000 nM | 634 nM | 
CC(C)n1cc(-c2cc(OCCCC(=O)O)cc3c2-c2ccccc2C3(O)C(F)(F)F)cn1 (single isomer, unassigned) [compound 553] | < 100 nM | 18 nM | 
COC(=O)COc1cc(Br)c2c(c1)C(O)(C(F)(F)F)c1ccccc1-2 (single isomer, unassigned) [compound 451, (4-bromo-9-hydroxy-9-trifluoromethyl-9H-fluoren-2-yloxy)-acetic acid methyl ester] | 100 to 1000 nM | 102 nM | 
CC1CCN1C(=O)c1ccc2c(c1)C(O)(C(F)(F)F)c1ccccc1-2 (stereo not shown) [compound 90] | 100 to 1000 nM | 474 nM | 

SMILES | IC50 [1] | IC50 [2] | other results
CC(C)OC(=O)c1cccc2c1-c1ccccc1C2(O)C(F)(F)F (stereo not shown) [compound 60] | > 1000 nM | 2040 nM | 
Cc1cc(-c2cnn(CCO)c2)c2c(c1)[C@@](O)(C(F)(F)F)c1ccccc1-2 (stereo in doubt) [compound 529] | < 100 nM |  | IC50 (PDHK inhibitory activity IC50 (μmol/L)): 17 nM
CNC(=O)C1CCN(C(=O)c2ccc3c(c2)C(O)(C(F)(F)F)c2ccccc2-3)C1 (stereo not shown) [compound 227] | > 1000 nM | 1050 nM | 
NC(=O)Cn1cc(-c2ccc3c(c2)C(O)(C(F)(F)F)c2cccc(CO)c2-3)cn1 (stereo not shown) [compound 609] |  | > 1000 nM | IC50 [3]: > 1000 nM
O=C1CCCN1CCOc1cc(CO)c2c(c1)C(O)(C(F)(F)F)c1ccccc1-2 (stereo not shown) [compound 583] | < 100 nM | 64 nM | 
O=C(COc1cc(Br)c2c(c1)C(O)(C(F)(F)F)c1ccccc1-2)N1CCC1 (stereo not shown) [compound 437] | < 100 nM | 60 nM | 
OC1(C(F)(F)F)c2ccccc2-c2c(-c3cncnc3)cc(Cl)cc21 (stereo not shown) [compound 335] | < 100 nM | 80 nM | 
Oc1ccc(-c2ccc3c(c2)C(O)(C(F)(F)F)c2ccccc2-3)cc1 (stereo not shown) [compound 205] | 100 to 1000 nM | 707 nM | 
O=C(c1cc(Cl)c2c(c1)C(O)(C(F)(F)F)c1ccccc1-2)N1CC(CO)C1 (stereo not shown) [compound 330] | 100 to 1000 nM | 125 nM | 
CC(=O)Nc1ccc2c(c1)C(O)(C(F)(F)F)c1ccccc1-2 (stereo not shown) [compound 22] | > 1000 nM | 16700 nM | 
Cn1cc(-c2cc(C(=O)NCCCCO)cc3c2-c2ccccc2C3(O)C(F)(F)F)cn1 (stereo not shown) [compound 345] | 100 to 1000 nM | 121 nM | 
Cn1cc(-c2cc(CCO)c3c(c2)C(O)(C(F)(F)F)c2ccccc2-3)cn1 (stereo not shown) [compound 643] |  | 184 nM | IC50 (PDHK inhibitory activity (class symbol)): 100 to 1000 nM
CC(=O)Nc1ccc(-c2ccc3c(c2)C(O)(C(F)(F)F)c2ccccc2-3)cc1 (stereo not shown) [compound 197] | 100 to 1000 nM | 298 nM | 
NC(=O)C1CCN(C(=O)c2ccc3c(c2)C(O)(C(F)(F)F)c2ccccc2-3)C1 (stereo not shown) [compound 226] | > 1000 nM | 1140 nM | 
CN(C)C(=O)CCCOc1cc(-c2cnn(C)c2)c2c(c1)C(O)(C(F)(F)F)c1ccccc1-2 (stereo not shown) [compound 427] | < 100 nM | 20 nM | 
CC(=O)NCc1ccc2c(c1)C(O)(C(F)(F)F)c1ccccc1-2 (stereo not shown) [compound 415] | > 1000 nM | 9190 nM | 
Cc1cc(C(=O)NCCCCO)cc2c1-c1ccccc1C2(O)C(F)(F)F (stereo not shown) [compound 338] |  | > 1000 nM | IC50 [4]: > 1000 nM
Cc1cccc2c1-c1ccccc1C2(O)C(F)(F)F (stereo not shown) [compound 2] | > 1000 nM | 2290 nM | 
COC(=O)c1cccc2c1-c1ccccc1C2(O)C(F)(F)F (stereo not shown) [compound 27] | 100 to 1000 nM | 848 nM | 
O=C1CCC(COc2ccc3c(c2)C(O)(C(F)(F)F)c2ccccc2-3)N1CCCO (stereo not shown) [compound 421] | 100 to 1000 nM | 233 nM | 
NC(=O)c1cc(OCCN2CCCC2=O)cc2c1-c1ccccc1C2(O)C(F)(F)F (stereo not shown) [compound 502] | < 100 nM | 48 nM | 
CC(C)OC(=O)N1CCN(c2ccc3c(c2)C(O)(C(F)(F)F)c2ccccc2-3)CC1 (stereo not shown) [compound 212] | 100 to 1000 nM | 685 nM | 
CC(C)NC(=O)Cn1cc(-c2cccc3c2-c2ccccc2C3(O)C(F)(F)F)cn1 (stereo not shown) [compound 514] | < 100 nM | 58 nM | 
